Columns and labels:
PBMC = experiment: TNFα secretion by ELISA in PBMC stimulated with LPS; type: cell-based, human; settings: LPS 10 ng/mL, 24 h, dose-dependent between 25 to 100 µM
Description: Peripheral Blood Mononuclear Cells (PBMC) were extracted from whole blood of anonymous donors and collected by Etablissement Français du Sang of Paris, France.
PBMC were cultured in Roswell Park Memorial Institute medium (ThermoFisher Scientific) with 10% heat-inactivated fetal calf serum, 1% L-glutamine, 1% non-essential amino acids, 1% sodium pyruvate, penicillin (100 IU/mL), and streptomycin (100 µg/mL). Peripheral blood was harvested in EDTA tubes, blood was diluted with PBS 1:1, layered over Histopaque-1077® (Sigma) and centrifuged for 20 min at 400g at room temperature. Extracted PBMC were washed twice with sterile PBS then centrifuged at 300g for 5 min and resuspended in complete medium. For experiments, cells were seeded at 300,000 cells per well in 200 µL of medium in 96-well plates (ThermoFisher Scientific).
Cells were exposed to 3-oxo-C12:2-HSL (synthesized as previously described[17]) or DMSO 0.1% as a control for different durations depending on the experiment, in the presence of the lactonase inhibitor 2-hydroxyquinoline (100 µM, Sigma-Aldrich), in order to limit the hydrolysis of the AHL lactone ring, as described previously[17],[18]. […]
At the end of cell treatment, the medium was centrifuged at 300g for 5 min at 4 °C. […] Absorbance was measured by a spectrometer (FLUOstar Omega; BMG Labtech) at 450 nm and the absorbance at 540 nm was subtracted.

STAT3 = STAT3 phosphorylation by Wes capillary electrophoresis in activated RAW264.7 macrophages; type: cell-based, murine; settings: 50 µM, 2 h, LPS and IFNγ stimulated
Description: In RAW264.7 cells, inflammation was triggered with LPS (10 ng/mL, Sigma) and IFNγ (10 U/mL, R&Dsystems) for 2 h or 6 h, depending on the experiments. PBMC were exposed to LPS (10 ng/mL) and AHL for 24 h. For TAS2R38 inhibition experiments, cells were exposed to TAS2R38 allosteric inhibitor probenecid (1 mM, Sigma) for one hour before adding AHLs and the inflammatory cocktail, without changing the media.
RAW264.7 cells were scraped in lysis buffer (20 mM Tris- HCl, pH 7.4, 5 mM EDTA, 0.15 M NaCl, 1% Triton X-100, 0.5% sodium deoxycholate) supplemented with protease inhibitor cocktail (Complete Mini; Roche, Boulogne-Billancourt, France) and phosphatase inhibitor cocktail (PhosSTOP, Sigma-Aldrich). Protein concentrations were determined using the BC Assay (Uptima/Interchim). Wes™ analyses (capillary electrophoresis system; ProteinSimple, San Jose, CA) were performed according to the manufacturer’s recommendations, and adequate protein concentrations and antibody dilutions were determined in preliminary assays to allow optimal quantitative conditions. […] Data were analysed using Compass for SW3.1 software (ProteinSimple).

3-oxo-C12:2-HSL
TNFα secretion (PBMC): strongly decreased
phosphorylation level of STAT3 vs activated cells without AHL (STAT3): not significantly altered
